The values below come from patent publication US20160199481A1 (priority 2013, published 2016).

Entries after “also recorded” stand apart in the source; their conditions may differ.

For experiment [1], the system named is WT HA/WT NA virus. The class given is cell-based, influenza A.
In experiment [2] the test system is WT HA/WT NA virus. The class given is cell-based, influenza A. The source holds these as a separate data set.

For oseltamivir, the “neutralization of infectivity (percent infectivity remaining)” value in experiment [1] was “resistant to neutralization by oseltamivir; also recorded: uninhibited at all concentrations tested”. For the same substance, the “inhibition of agglutination by oseltamivir” value in experiment [2] is “uninhibited at all oseltamivir concentrations tested”.
